Test results as given in patent US20250179047A1, “5-[7-(3,4-DIHYDRO-1H-ISOQUINOLINE-2-CARBONYL)-1,2,3,4 TETRAHYDROISOQUINOLIN-6-YL]-1H-PYRROLE-3-CARBOXAMIDE DERIVATIVES, PHARMACEUTICAL COMPOSITIONS CONTAINING THEM AND THEIR USES AS PRO-APOPTOTIC AGENTS” (LES LABORATOIRES SERVIER, priority 2022, published 2025).

Experiments:
[1] = target: BCL2 WT (Homo sapiens (Human), UniProt P10415); assay: TR-FRET competitive binding assay, BCL2 WT; conditions: Ki determined from IC50, read-out: TR_FRET EKI_Bcl2 WT
Method in brief: (§1)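 Ki derived from IC50 (11-point dilution, 520/495 nm emission ratio) for displacing a fluorescein-labelled PUMA peptide (2 or 20 nM). Target was 0.5 nM E. coli-expressed Halo-tagged BCL2 (1-207) or BCLXL (2-196), terbium-labelled on Halo. Incubation 2 h at 23°C in pH 7.5 Hepes with 150 mM NaCl and 5% DMSO.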

[2] = target: BCL2 G101V (Homo sapiens, UniProt P10415, G101V); assay: TR-FRET competitive binding assay, BCL2 G101V; conditions: BCL2 G101V; Ki determined from IC50; read-out: TR_FRET EKI_Bcl2 G101V
Method in brief: as §1

[3] = system: BCL2 G101V; assay: TR-FRET competitive binding assay, BCL2 G101V; parameters: species or system human; conditions: ratio Ki BCL2 G101V / Ki BCL2 WT
Method in brief: as §1

[4] = target: BCL2 D103Y (Homo sapiens, UniProt P10415, D103Y); assay: TR-FRET competitive binding assay, BCL2 D103Y; conditions: Ki determined from IC50, read-out: TR_FRET EKI_Bcl2 D103Y
Method in brief: as §1

[5] = target: BCLXL WT (Homo sapiens (Human), UniProt Q07817); assay: TR-FRET competitive binding assay, BCLXL WT; conditions: for Ki: BCLXL WT, Ki determined from IC50, read-out: TR_FRET EKI BclxL; for TR_FRET EKI BCLxL/WT selectivty ratio: ratio Ki BCLxL / Ki BCL2 WT
Method in brief: as §1

[6] = system: KMS-12-PE Bcl-2 WT; assay: In vitro cytotoxicity CellTiter-Glo 48 h, KMS-12-PE Bcl-2 WT; format: cell-based; conditions: Homo sapiens, KMS-12-PE, C50 = concentration needed to reach 50% of the cellular viability
Method in brief: (§2)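 Bcl-2 WT- and G101V-expressing KMS-12-PE cells; 48 h treatment at 37 °C, 5% CO2; CellTiter-Glo ATP luminescence; C50 from 11-point curves.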

[7] = system: KMS-12-PE Bcl-2 G101V; assay: In vitro cytotoxicity CellTiter-Glo 48 h, KMS-12-PE Bcl-2 G101V; format: cell-based; conditions: for Ratio (G101V/WT): C50 KMS-12-PE Bcl-2 G101V over C50 KMS-12-PE Bcl-2 WT; for IC50: Homo sapiens, KMS-12-PE, 48 h, CellTiter-Glo, C50 = concentration needed to reach 50% of the cellular viability
Method in brief: as §2

BCLXL WT, sequence (Q07817 other isoform, or with tags, fused parts or gaps): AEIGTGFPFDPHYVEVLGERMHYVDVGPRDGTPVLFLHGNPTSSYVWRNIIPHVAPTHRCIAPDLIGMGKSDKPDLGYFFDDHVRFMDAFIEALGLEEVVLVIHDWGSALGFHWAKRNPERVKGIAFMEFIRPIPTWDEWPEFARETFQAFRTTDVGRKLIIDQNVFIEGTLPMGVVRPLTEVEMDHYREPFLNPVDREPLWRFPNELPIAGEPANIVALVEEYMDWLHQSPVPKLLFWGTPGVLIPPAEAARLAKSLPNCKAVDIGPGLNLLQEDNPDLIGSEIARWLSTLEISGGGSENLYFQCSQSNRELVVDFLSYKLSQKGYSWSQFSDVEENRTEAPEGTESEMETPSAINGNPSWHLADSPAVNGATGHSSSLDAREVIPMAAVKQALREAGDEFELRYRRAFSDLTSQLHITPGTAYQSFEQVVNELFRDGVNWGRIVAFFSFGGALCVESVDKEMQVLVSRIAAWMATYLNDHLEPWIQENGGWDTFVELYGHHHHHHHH

Ki [1] [nM]	Ki [2] [nM]	TR_FRET EKI G101V/WT selectivty ratio [3]	Ki [4] [nM]	Ki [5] [nM]	TR_FRET EKI BCLxL/WT selectivty ratio [5]	Compound	IC50 [6] [µM]	Ratio (G101V/WT) [7]	IC50 [7] [µM]
0.08	0.4	5.1	0.17	2.8	35.9	Cc1c(N(C(=O)c2cc(-c3cc4c(cc3C(=O)N3Cc5ccccc5C[C@H]3CN3CCC(C)CC3)CN(C(=O)Cc3ccc(OCCN5CCOCC5)cc3F)CC4)n(C)c2C)c2ccc(O)cc2)cc(C#N)n1C [Example 140]	0.0055	6.2044	0.034
0.13	1.3	10.0	0.31	8.1	62.3	Cc1c(N(C(=O)c2cc(-c3cc4c(cc3C(=O)N3Cc5ccccc5C[C@H]3C)CN(C(=O)Cc3ccc(OCCN5CCOCC5)cc3)CC4)n(C)c2C)c2ccc(O)cc2)cnn1C1CCOCC1 [Example 142, N-(4-hydroxyphenyl)-1,2-dimethyl-N-[5-methyl-1-(oxan-4-yl)pyrazol-4-yl]-5-(7-{[(3R)-3-methyl-3,4-dihydro-1H-isoquinolin-2-yl]carbonyl}-2-(2-{4-[2-(morpholin-4-yl)ethoxy]phenyl}acetyl)-3,4-dihydro-1H-isoquinolin-6-yl)pyrrole-3-carboxamide]	0.156	8.9744	1.4
0.04	0.4	12.2	0.1	3	83.3	COCCn1cc(N(C(=O)c2cc(-c3cc4c(cc3C(=O)N3Cc5ccccc5C[C@H]3C)CN(C(=O)Cc3ccc(OCCN5CCOCC5)cc3)CC4)n(C)c2C)c2ccc(O)cc2)cn1 [Example 143, N-(4-hydroxyphenyl)-N-[1-(2-methoxyethyl)pyrazol-4-yl]-1,2-dimethyl-5-(7-{[(3R)-3-methyl-3,4-dihydro-1H-isoquinolin-2-yl]carbonyl}-2-(2-{4-[2-(morpholin-4-yl)ethoxy]phenyl}acetyl)-3,4-dihydro-1H-isoquinolin-6-yl)pyrrole-3-carboxamide]	0.048	12.604	0.605
0.1	1.1	11.0	0.18	7.7	77.0	Cc1c(C(=O)N(c2ccc(O)cc2)c2cnn(CC(C)C)c2)cc(-c2cc3c(cc2C(=O)N2Cc4ccccc4C[C@H]2C)CN(C(=O)Cc2ccc(OCCN4CCOCC4)cc2)CC3)n1C [Example 144, N-(4-hydroxyphenyl)-1,2-dimethyl-5-(7-{[(3R)-3-methyl-3,4-dihydro-1H-isoquinolin-2-yl]carbonyl}-2-(2-{4-[2-(morpholin-4-yl)ethoxy]phenyl}acetyl)-3,4-dihydro-1H-isoquinolin-6-yl)-N-[1-(2-methylpropyl)pyrazol-4-yl]pyrrole-3-carboxamide]	0.0245	12.531	0.307
0.06	0.3	5.9	0.14	1	17.2	Cc1c(C(=O)N(c2ccc(O)cc2)c2cnn3c2CCCC3)cc(-c2cc3c(cc2C(=O)N2Cc4ccccc4C[C@H]2C)CN(C(=O)Cc2ccc(OCCN4CCOCC4)cc2)CC3)n1C [Example 147, N-(4-hydroxyphenyl)-1,2-dimethyl-5-(7-{[(3R)-3-methyl-3,4-dihydro-1H-isoquinolin-2-yl]carbonyl}-2-(2-{4-[2-(morpholin-4-yl)ethoxy]phenyl}acetyl)-3,4-dihydro-1H-isoquinolin-6-yl)-N-{4H,5H,6H,7H-pyrazolo[1,5-a]pyridin-3-yl}pyrrole-3-carboxamide]	0.0304	6.9408	0.211

More lines, now with the values behind:

Compound	Ki [1] [nM]	Ki [2] [nM]	TR_FRET EKI G101V/WT selectivty ratio [3]	Ki [4] [nM]	Ki [5] [nM]	TR_FRET EKI BCLxL/WT selectivty ratio [5]	IC50 [6] [µM]	Ratio (G101V/WT) [7]	IC50 [7] [µM]
Cc1c(N(C(=O)c2cc(-c3cc4c(cc3C(=O)N3Cc5ccccc5C[C@H]3CN3CCCCC3)CN(C(=O)Cc3ccc(OC(C)(C)CN5CCOCC5)cc3)CC4)n(C)c2C)c2ccc(O)cc2)cc(C#N)n1C [Example 132, N-(5-cyano-1,2-dimethyl-1H-pyrrol-3-yl)-N-(4-hydroxyphenyl)-1,2-dimethyl-5-{2-[2-(4-{[2-methyl-1-(morpholin-4-yl)propan-2-yl]oxy}phenyl)acetyl]-7-[(3S)-3-[(piperidin-1-yl)methyl]-1,2,3,4-tetrahydroisoquinoline-2-carbonyl]-1,2,3,4-tetrahydroisoquinolin-6-yl}-1H-pyrrole-3-carboxamide]	0.14	2.9	20.4	0.37	12	85.7	0.066	7.2727	0.48
Cc1c(N(C(=O)c2cc(-c3cc4c(cc3C(=O)N3Cc5ccccc5C[C@H]3CN3CCCCC3)CN(C(=O)COc3ccccc3)CC4)n(C)c2C)c2ccc(O)cc2)cc(C#N)n1C [Example 133, N-(5-cyano-1,2-dimethyl-1H-pyrrol-3-yl)-N-(4-hydroxyphenyl)-1,2-dimethyl-5-[2-(2-phenoxyacetyl)-7-[(3S)-3-[(piperidin-1-yl)methyl]-1,2,3,4-tetrahydroisoquinoline-2-carbonyl]-1,2,3,4-tetrahydroisoquinolin-6-yl]-1H-pyrrole-3-carboxamide]	0.07	0.6	9.4	0.38	1.9	29.2	0.01	5.59	0.0556
CCN(CC)C[C@@H]1Cc2ccccc2CN1C(=O)c1cc2c(cc1-c1cc(C(=O)N(c3ccc(O)cc3)c3cc(C#N)n(C)c3C)c(C)n1C)CCN(C(=O)Cc1ccc(OCCN3CCOCC3)cc1F)C2 [Example 137, N-(5-cyano-1,2-dimethyl-1H-pyrrol-3-yl)-5-{7-[(3S)-3-[(diethylamino)methyl]-1,2,3,4-tetrahydroisoquinoline-2-carbonyl]-2-(2-{2-fluoro-4-[2-(morpholin-4-yl)ethoxy]phenyl}acetyl)-1,2,3,4-tetrahydroisoquinolin-6-yl}-N-(4-hydroxyphenyl)-1,2-dimethyl-1H-pyrrole-3-carboxamide]	0.06	0.3	4.6	0.16	1.4	23.7	0.0148	3.2905	0.0487
Cc1c(N(C(=O)c2cc(-c3cc4c(cc3C(=O)N3Cc5ccccc5C[C@H]3CN(C)C(C)C)CN(C(=O)Cc3ccc(OCCN(C)C5CC5)cc3)CC4)n(C)c2C)c2ccc(O)cc2)cc(C#N)n1C [Example 138, N-(5-cyano-1,2-dimethyl-pyrrol-3-yl)-5-[2-[2-[4-[2-[cyclopropyl(methyl)amino]ethoxy]phenyl]acetyl]-7-[(3S)-3-[[isopropyl(methyl)amino]methyl]-3,4-dihydro-1H-isoquinoline-2-carbonyl]-3,4-dihydro-1H-isoquinolin-6-yl]-N-(4-hydroxyphenyl)-1,2-dimethyl-pyrrole-3-carboxamide]	0.08	0.5	6.2	0.24	2.2	27.2	0.036	5.4167	0.195
Cc1c(N(C(=O)c2cc(-c3cc4c(cc3C(=O)N3Cc5ccccc5C[C@H]3CN3CCC[C@H](C)C3)CN(C(=O)Cc3ccc(OCCN(C)C5CC5)cc3)CC4)n(C)c2C)c2ccc(O)cc2)cc(C#N)n1C [Example 139, N-(5-cyano-1,2-dimethyl-pyrrol-3-yl)-5-[2-[2-[4-[2-[cyclopropyl(methyl)amino]ethoxy]phenyl]acetyl]-7-[(3S)-3-[[(3S)-3-methyl-1-piperidyl]methyl]-3,4-dihydro-1H-isoquinoline-2-carbonyl]-3,4-dihydro-1H-isoquinolin-6-yl]-N-(4-hydroxyphenyl)-1,2-dimethyl-pyrrole-3-carboxamide]	0.12	1	8.3	0.51	5.7	47.5	0.021	5.4762	0.115
